This passage reports Activity results from ChEMBL document CHEMBL1125105, “Synthesis of 1-methyl-5-(3-azido-2,3-dideoxy-beta-D-erythro-pentofuranosyl)uracil and 1-methyl-5-(3-azido-2,3-dideoxy-2-fluoro-beta-D-arabinofuranosyl)uracil. The C-nucleoside isostere of 3'-azido-3'-deoxythymidine and its 2'-"up"-fluoro analogue” (J Med Chem, 1990).

In this test the test system is H9. As to the kind of experiment: Compound was found to have no significant inhibitory activity against HIV in H9 cells. Particulars: Homo sapiens. The format is functional, cell-based.

On to `Cn1cc([C@H]2C[C@H](N=[N+]=[N-])[C@@H](CO)O2)c(=O)[nH]c1=O`, for which the Activity entry is “No significant inhibitory activity against HIV in H9 cells”. Next, `Cc1cn(C2CC(CO)C(O)C2F)c(=O)[nH]c1=O` (configuration not stated): “No significant inhibitory activity against HIV in H9 cells”.
